According to patent US5972899A, “Apoptosis induced by Shigella IpaB” (New York University, priority 1996, dated 1999):

Tested on: J774 cells infected with S. flexneri M90T
Assay: LDH release cytotoxicity assay, J774 cells infected with S. flexneri M90T
Type: cell-based, murine
Protocol: In the studies the results of which are shown in FIG. 5, 2×10^4 J774 or peritoneal macrophage cells were seeded onto 96-well plates 18 hours before infection with M90T at a multiplicity of infection of 25 bacteria per cell (Clerc, P. L. et al., supra). Two hours after infection, supernatants of the infected macrophages were assayed for LDH using the Cytotox96® kit (Promega) according to the manufacture's instructions. The percent cytotoxicity was calculated as: [formula] where spontaneous release is the amount of LDH activity in supernatants of cells not infected and total release is the LDH activity in macrophage lysates. ICE inhibitor was added 1 h before infection at a concentration of 25 μg/ml.

For `CC(=O)N[C@@H](Cc1ccc(O)cc1)C(=O)N[C@H](C(=O)N[C@@H](C)C(=O)N[C@H](C=O)CC(=O)O)C(C)C` [Ac-YVAD-CHO], the inhibition at 25 µg/mL (Mus musculus, ICE inhibitor 25 μg/ml added 1 h before infection, M90T at 25 bacteria per cell, LDH release 2 h after infection, read-out: inhibition of S. flexneri-induced cell death) was 81.5% and the “reversibility of the inhibition of cell death” value (inhibitor washed away (FIG. 5)) was “reversed by washing away the inhibitor”.
